Assay results: patent US11666539B2, “Synthetic lipid-like materials for brain delivery” (Trustees of Tufts College, priority 2020, dated 2023)

Test system: flox-stop-flox tdTomato construct
Assay: (-27)GFP-Cre protein delivery, tdTomato expression in Ai14 mouse brain
Type: in vivo
Settings: (-27)GFP-Cre/LNP weight ratio 1/4; four i.v. injections of 50 μg protein; brain slices, fluorescence imaging
From the text: GFP fused Cre recombinase was chosen as a model protein for the study, using the Ail4 model mouse line (FIG. 4A). The Ail4 mouse line contains a flox-stop-flox tdTomato construct. The successful intracellular delivery of Cre protein into the cells of Ail4 mouse leads to the gene recombination and turns on the tdTomato expression which can be directly visualized as red fluorescence signal without additional staining. Here, (−27)GFP-Cre protein was used. NT1-O14B LNPs doped with PBA-Q76-O16B was chosen, as these nanoparticles could successfully deliver (−27)GFP-Cre. The weight ratio of NT1-O14B and PBA-Q76-O16B was fixed at 3:7, based on the results observed from the AmB and ASO delivery. Lipid formulations were prepared using the approaches described for the formulation for ASO delivery. Briefly, the (−27)GFP-Cre protein was mixed with LNPs at a weight ratio of 1/4 and incubated the solution for 15 min at room temperature before intravenous injection. Mice were injected four times with a dose of 50 μg protein per injection. Five days after the last injection, the mice were sacrificed and brain tissues were collected, fixed, and dehydrated. Then the tissues were cryo-sectioned into […] slices and counter-stained with DAPI for fluorescence imaging.

CCCCCCCCCCCCSSCCOC(=O)CC[N+](CCC(=O)OCCSSCCCCCCCCCCCC)(CCN1CCCC1)Cc1ccc(B(O)O)cc1 [PBA-Q76-O16B]
tdTomato expression in the brain: no tdTomato expression
